Laboratory results reported in PubChem BioAssay AID330 (DTP/NCI, 2004).
“And” between values parts separate entries of the source, which are not always exact repeats. Equal values may be shown once. Inconclusive results and toxic doses are left out.

Tested on: P388 leukemia ip, CD2F1 mice, survival T/C
Assay: NCI In Vivo Anticancer Drug Screen. Data for tumor model P388 Leukemia (intraperitoneal) in CD2F1 (CDF1) mice
Settings: endpoint: median survival time, higher = longer survival
Procedure, shortened: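 Mice carrying the transplanted tumor received test compound or vehicle. Survival was recorded in each group, and the value is the treated-group measurement divided by that of the vehicle-treated control group.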

[1] = dose: 50.0 mg/kg/injection, schedule: Q01DX009 (ip), vehicle: saline
[2] = dose: 100.0 mg/kg/injection, schedule: Q01DX009 (ip), vehicle: saline
[3] = dose: 200.0 mg/kg/injection, schedule: Q01DX009 (ip), vehicle: saline
[4] = dose: 100.0 mg/kg/injection, schedule: Q04DX003 (ip), vehicle: saline with Tween-80
[5] = dose: 200.0 mg/kg/injection, schedule: Q04DX003 (ip), vehicle: saline with Tween-80
[6] = dose: 400.0 mg/kg/injection, schedule: Q04DX003 (ip), vehicle: saline with Tween-80
[7] = dose: 50.0 mg/kg/injection, schedule: Q01DX005 (ip), vehicle: saline with Tween-80
[8] = dose: 100.0 mg/kg/injection, schedule: Q01DX005 (ip), vehicle: saline with Tween-80
[9] = dose: 50.0 mg/kg/injection, schedule: Q01DX009 (ip), vehicle: saline with Tween-80
[10] = dose: 100.0 mg/kg/injection, schedule: Q01DX009 (ip), vehicle: saline with Tween-80
[11] = dose: 200.0 mg/kg/injection, schedule: Q01DX009 (ip), vehicle: saline with Tween-80
[12] = dose: 12.5 mg/kg/injection, schedule: Q01DX009 (ip), vehicle: saline with Tween-80
[13] = dose: 25.0 mg/kg/injection, schedule: Q01DX009 (ip), vehicle: saline with Tween-80
[14] = dose: 100.0 mg/kg/injection, schedule: Q04DX003 (ip), vehicle: Klucel (hydroxypropylcellulose) (HPC)
[15] = dose: 200.0 mg/kg/injection, schedule: Q04DX003 (ip), vehicle: Klucel (hydroxypropylcellulose) (HPC)
[16] = dose: 50.0 mg/kg/injection, schedule: Q01DX005 (ip), vehicle: Klucel (hydroxypropylcellulose) (HPC)
[17] = dose: 100.0 mg/kg/injection, schedule: Q01DX005 (ip), vehicle: Klucel (hydroxypropylcellulose) (HPC)
[18] = dose: 200.0 mg/kg/injection, schedule: Q01DX005 (ip), vehicle: Klucel (hydroxypropylcellulose) (HPC)
[19] = dose: 50.0 mg/kg/injection, schedule: Q01DX009 (ip), vehicle: Klucel (hydroxypropylcellulose) (HPC)
[20] = dose: 100.0 mg/kg/injection, schedule: Q01DX009 (ip), vehicle: Klucel (hydroxypropylcellulose) (HPC)
[21] = dose: 200.0 mg/kg/injection, schedule: Q01DX009 (ip), vehicle: Klucel (hydroxypropylcellulose) (HPC)
[22] = dose: 100.0 mg/kg/injection, schedule: Q01DX001 (ip), vehicle: saline with Tween-80
[23] = dose: 400.0 mg/kg/injection, schedule: Q04DX003 (ip), vehicle: Klucel (hydroxypropylcellulose) (HPC)
[24] = dose: 60.0 mg/kg/injection, schedule: Q01DX005 (ip), vehicle: saline with Tween-80
[25] = dose: 120.0 mg/kg/injection, schedule: Q01DX005 (ip), vehicle: saline with Tween-80
[26] = dose: 240.0 mg/kg/injection, schedule: Q01DX005 (ip), vehicle: saline with Tween-80
[27] = dose: 100.0 mg/kg/injection, schedule: Q04DX003 (ip), vehicle: saline
[28] = dose: 200.0 mg/kg/injection, schedule: Q04DX003 (ip), vehicle: saline
[29] = dose: 400.0 mg/kg/injection, schedule: Q04DX003 (ip), vehicle: saline
[30] = dose: 400.0 mg/kg/injection, schedule: Q01DX009 (ip), vehicle: saline with Tween-80

With `NC1[N-]C(C2CCCC[N-]2)CC2CCCCC21.O=[N+]([O-])O.O=[N+]([O-])O.[Cu+2]` (configuration not stated) the T/C (dose: 6.25 mg/kg/injection, schedule: Q04DX002 (ip), vehicle: suspension in saline) was 103 % of control and the T/C (dose: 12.5 mg/kg/injection, schedule: Q04DX002 (ip), vehicle: suspension in saline) was 111 % of control.

For `N#CC(C#N)=C1SCCCS1`, the T/C [1] was 105 % of control, the T/C [2] was 95 % of control and the T/C [3] was 98 % of control.

For `Nc1cccc(C(=O)c2cccc(N)c2)c1`, the T/C [4] was 100 % of control, the T/C [5] was 95 % of control and the T/C [6] was 100 % of control.

In the case of `O=C(N/C(=C/c1ccc(Cl)cc1Cl)c1nc2ccccc2s1)c1ccccc1`, the T/C [7] is reported as 109 % of control and the T/C [8] is reported as 111 % of control.

`CCN(CC)CCOC(=O)c1ccc(N=C/C=C/C(C#N)=C/NOC)cc1` was tested, and the T/C [9] was 113 % of control, the T/C [10] was 101 % of control and the T/C [11] was 103 % of control.

`CCOC(=O)CCC(C)(C#N)c1ccccc1` (configuration not stated) was tested, and the T/C [12] was 94 % of control, the T/C [13] was 99 % of control and the T/C [9] was 103 % of control. The T/C [10] was 87 % of control.

For `Cc1cc(-c2nc(-c3cc(C)c(O)c(C)c3)nc(-c3cc(C)c(O)c(C)c3)n2)cc(C)c1O`, the T/C (dose: 50.0 mg/kg/injection, schedule: Q04DX003 (ip), vehicle: Klucel (hydroxypropylcellulose) (HPC)) was 100 % of control, the T/C [14] was 106 % of control and the T/C [15] was 105 % of control.

With `Cc1ccccc1N=c1c2cnn(C)c2ncn1-c1ccccc1C` the T/C [16] was 96 % of control, the T/C [17] was 96 % of control and the T/C [18] was 93 % of control.

In the case of `c1cnc2nc3c4ccccc4c4ccccc4c3nc2c1`, the T/C [9] is reported as 104 % of control and 94 % of control, the T/C [10] is reported as 104 % of control and 122 % of control and 93 % of control and the T/C [11] is reported as 101 % of control and 110 % of control and 86 % of control.

For `CC1CC2C(=S)NC(=O)C(c3ccccc3)=C2O1` (configuration not stated), the T/C [19] was 107 % of control, the T/C [20] was 103 % of control and the T/C [21] was 100 % of control.

`COc1cc(C(O)(CCN2CCOCC2)c2ccc3c(c2)OCO3)cc(OC)c1OC` (configuration not stated) was tested, and the T/C [16] was 91 % of control and the T/C [17] was 87 % of control.

In the case of `COc1ccc(/C=N/N=c2/sc3ccccc3n2CC(=O)O)cc1`, the T/C [22] is reported as 108 % of control and the T/C (dose: 200.0 mg/kg/injection, schedule: Q01DX001 (ip), vehicle: saline with Tween-80) is reported as 87 % of control.

For `COC(=O)NCP(=O)(CNC(=O)OC)CNC(=O)OC`, the T/C [19] was 100 % of control, the T/C [20] was 98 % of control and the T/C [21] was 100 % of control.

`CC(=O)NC(Cc1cnc[nH]1)C(C)=O` (configuration not stated) was tested, and the T/C [1] was 100 % of control, the T/C [2] was 98 % of control and the T/C [3] was 104 % of control.

`O=P(O)(O)SP(=O)(O)O.[Mn]` was tested, and the T/C [14] was 105 % of control, the T/C [15] was 110 % of control and the T/C [23] was 119 % of control.

With `COc1cc(O)c(CC=C(C)C)cc1O` the T/C [16] was 105 % of control and the T/C [17] was 101 % of control.

For `CC(C)(C)OOC(=O)c1ccc2ccccc2c1`, the T/C [24] was 109 % of control, the T/C [25] was 97 % of control and the T/C [26] was 93 % of control.

For `CN1CCC(C(=O)NNc2ccccc2)CC1`, the T/C (dose: 50.0 mg/kg/injection, schedule: Q01DX005 (ip), vehicle: saline) was 100 % of control, the T/C (dose: 100.0 mg/kg/injection, schedule: Q01DX005 (ip), vehicle: saline) was 102 % of control and the T/C (dose: 200.0 mg/kg/injection, schedule: Q01DX005 (ip), vehicle: saline) was 102 % of control.

In the case of `C=CCN(NC(=O)c1ccccc1)C(=O)c1ccccc1`, the T/C [27] is reported as 105 % of control, the T/C [28] is reported as 100 % of control and the T/C [29] is reported as 110 % of control.

In the case of `CC(CC(=O)c1cccc([N+](=O)[O-])c1)=NCC(C)N=C(C)CC(=O)c1cccc([N+](=O)[O-])c1` (configuration not stated), the T/C [4] is reported as 98 % of control, the T/C [5] is reported as 101 % of control and the T/C [6] is reported as 106 % of control.

With `CSC1=C(C#N)C(=O)N=S(C)(C)=N1` the T/C [7] was 108 % of control, the T/C [8] was 110 % of control and the T/C (dose: 200.0 mg/kg/injection, schedule: Q01DX005 (ip), vehicle: saline with Tween-80) was 100 % of control.

With `O=C1CSC(c2c(F)cccc2Cl)N1c1nncs1` (configuration not stated) the T/C (dose: 60.0 mg/kg/injection, schedule: Q01DX005 (ip), vehicle: Klucel (hydroxypropylcellulose) (HPC)) was 102 % of control and 104 % of control and the T/C (dose: 120.0 mg/kg/injection, schedule: Q01DX005 (ip), vehicle: Klucel (hydroxypropylcellulose) (HPC)) was 105 % of control.

For `O=C(O)CSC(=S)CCCCCCCCCCC(=S)SCC(=O)O`, the T/C (dose: 12.5 mg/kg/injection, schedule: Q01DX005 (ip), vehicle: saline with Tween-80) was 111 % of control, the T/C (dose: 25.0 mg/kg/injection, schedule: Q01DX005 (ip), vehicle: saline with Tween-80) was 109 % of control and the T/C [7] was 116 % of control and 118 % of control.

In the case of `CCCCCn1cnc2c(=S)nc[nH]c21`, the T/C [4] is reported as 104 % of control, the T/C [5] is reported as 100 % of control and the T/C [6] is reported as 90 % of control.

For `COCCn1c2nc(=O)n(-c3ccccc3)c(=O)c-2nc2c1CCCC2`, the T/C (dose: 25.0 mg/kg/injection, schedule: Q01DX009 (ip), vehicle: saline) was 100 % of control, the T/C [1] was 93 % of control and the T/C [2] was 94 % of control. The T/C [3] was 116 % of control.

For `COc1ccc(S(N)(=O)=O)cc1[N+](=O)[O-]`, the T/C [14] was 97 % of control, the T/C [15] was 104 % of control and the T/C [23] was 97 % of control.

`CCCCCCCCCCSCC(N)CO` (configuration not stated) was tested, and the T/C (dose: 6.25 mg/kg/injection, schedule: Q01DX009 (ip), vehicle: saline with Tween-80) was 93 % of control, the T/C [12] was 100 % of control and the T/C [13] was 100 % of control.

With `COc1ccc(C(=O)CC(=O)CCC(=O)Nc2ccc(Cl)cc2Cl)cc1` the T/C [24] was 103 % of control, the T/C [25] was 101 % of control and the T/C [26] was 92 % of control.

With `COC(=O)c1cc2nc(C(C)C)n(Cc3ccccc3)c2cc1C(=O)OC` the T/C [24] was 92 % of control, the T/C [25] was 92 % of control and the T/C [26] was 90 % of control.

`CN1C(=O)C23CCCN2C(=O)C1(C)SC(=N)S3` (configuration not stated) was tested, and the T/C (dose: 25.0 mg/kg/injection, schedule: Q04DX003 (ip), vehicle: suspension in saline) was 101 % of control, the T/C (dose: 50.0 mg/kg/injection, schedule: Q04DX003 (ip), vehicle: suspension in saline) was 95 % of control and the T/C (dose: 100.0 mg/kg/injection, schedule: Q04DX003 (ip), vehicle: suspension in saline) was 95 % of control.

For `COc1cc([N+](=O)[O-])c(S(=O)(=O)O)cc1N=N/C=N/Nc1cc(S(=O)(=O)O)c([N+](=O)[O-])cc1OC`, the T/C [16] was 118 % of control, the T/C [17] was 110 % of control and the T/C [18] was 108 % of control.

`CCO/C([O-])=C(\C=N\[n+]1ccccc1C)c1ccccc1` was tested, and the T/C [1] was 109 % of control, the T/C [2] was 110 % of control and the T/C [3] was 109 % of control.

`CC/S(=N\S(=O)(=O)c1ccc(C)cc1)c1ccccc1` (configuration not stated) was tested, and the T/C [10] was 100 % of control, the T/C [11] was 109 % of control and the T/C [30] was 100 % of control.

In the case of `C/C=C(\C)C(=O)O[C@@H]1[C@H]2C(C)=CC(=O)[C@@H](O)[C@]2(C)[C@H]2[C@@]3(O)OC[C@@]24[C@@H]1OC(=O)C[C@H]4[C@@H](C)[C@H]3O`, the T/C (dose: 0.25 mg/kg/injection, schedule: Q01DX009 (ip), vehicle: other) is reported as 111 % of control and the T/C (dose: 0.6 mg/kg/injection, schedule: Q01DX009 (ip), vehicle: other) is reported as 163 % of control.

`C1CNP2(=NP(N3CC3)(N3CC3)=NP(N3CC3)(N3CC3)=N2)N1` was tested, and the T/C (dose: 12.5 mg/kg/injection, schedule: Q01DX001 (ip), vehicle: saline with Tween-80) was 108 % of control, the T/C (dose: 25.0 mg/kg/injection, schedule: Q01DX001 (ip), vehicle: saline with Tween-80) was 108 % of control and the T/C [22] was 156 % of control.

For `CCOC(=O)c1cn2ccccc2c(C(C)=O)c1=N`, the T/C [27] was 100 % of control, the T/C [28] was 100 % of control and the T/C [29] was 94 % of control.

For `CC(C)OC(=S)SCC(=O)c1ccc(C(F)(F)F)cc1`, the T/C [9] was 105 % of control, the T/C [10] was 104 % of control and the T/C [11] was 98 % of control. The T/C [30] was 100 % of control.
